Where “and” joins values, the source holds several entries; their conditions need not be identical. Identical values can stand only once.
Legend:
Bcl-2 = Bcl-2 inhibition assay; format: cell-based, human; details: A-549 cell line
Method: 4.2.8. Bcl-2 inhibition assay
Mix all reagents thoroughly without foaming before use. Wash the microwells twice with approximately 300 μL Wash Buffer per well with thorough aspiration of microwell contents between washes. Take caution not to scratch the surface of the microwells. After the last wash, empty the wells and tap microwell strips on absorbent pad or paper towel to remove excess Wash Buffer. Use the microwell strips immediately after washing or place upside down on a wet absorbent paper for not longer than 15 minutes. […] Add 100 μL of Sample […]
Diluent in duplicate to all standard wells and to the blank wells. Prepare standard (1:2 dilution) in duplicate ranging from 32 ng/mL to 0.5 ng/mL. Add 100 μL of Sample Diluent, in duplicate, to the blank wells. Add 80 μL of Sample Diluent, in duplicate, to the sample wells. Add 20 μL of each Sample, in duplicate, to the designated wells. Add 50 μL of diluted biotin-conjugate to all wells, including the blank wells. Cover with a plate cover and incubate at room temperature, on a microplate shaker at 100 rpm if available, for 2 hours. Remove plate cover and empty the wells.
Wash microwell strips 3 times as described in step 2. Add 100 μL of diluted Streptavidin-HRP to all wells, including the blank wells. Cover with a plate cover and incubate at room temperature, on a microplate shaker at 100 rpm if available, for 1 hour. Remove plate cover and empty the wells.
Wash microwell strips 3 times as described in step 2. Proceed to the next step. Pipette 100 μl of mixed TMB Substrate Solution to all wells, including the blanks. Incubate the microwell strips at room temperature (18° to 25°C) for about 15 minutes, if available on a rotator set at 100 rpm.
Avoid direct exposure to intense light. The point, at which the substrate reaction is stopped, is often determined by the ELISA reader. Many ELISA readers record absorbance only up to 2.0
O.D. Therefore, the color development within individual microwells must be watched by the person running the assay and the substrate reaction stopped before positive wells are no longer properly detectable. Stop the enzyme reaction by quickly pipetting 100 μL of Stop Solution into each well, including the blank wells. It is important that the Stop Solution is spread quickly and uniformly throughout the microwells to completely inactivate the enzyme. Results must be read immediately after the Stop Solution is added or within one hour i f the microwell strips are stored at 2 - 8°C in the dark. Read absorbance of each microwell on a spectrophotometer using 450 nm as the primary wavelength.

Bax = Bax activation assay; format: cell-based, human; details: for Bax Conc: A-549 cancer cells
Method: 4.2.7. Bax activation assay
Bring all reagents, except the human Bax-α Standard, to room temperature for at least 30 minutes prior to opening. The human Bax-α Standard solution should not be left at room temperature for more than 10 minutes. All standards, controls and samples should be run in duplicate. Refer to the Assay Layout Sheet to determine the number of wells to be used and put any remaining wells with the desiccant back into the pouch and seal the ziploc. Store unused wells at 4 °C. Pipet 100 μL of Assay Buffer into the S0 (0 pg/mL standard) wells. Pipet 100 μL of Standards #1 through #6 into the appropriate wells. Pipet 100 μL of the Samples into the appropriate wells. Tap the plate gently to mix the contents. Seal the plate and incubate at room temperature on a plate shaker for 1 hour at ~500 rpm. Empty the contents of the wells and wash by adding 400 μL of wash solution to every well. Repeat the wash 4 more times for a total of 5 washes. After the final wash, empty or aspirate the wells and firmly tap the plate on a lint free paper towel to remove any remaining wash buffer.
Pipet 100 μL of yellow Antibody into each well, except the Blank. Seal the plate and incubate at room temperature on a plate shaker for 1 hour at ~500 rpm. Empty the contents of the wells and wash by adding 400 μL of wash solution to every well. Repeat the wash 4 more times for a total of 5 washes. After the final wash, empty or aspirate the wells and firmly tap the plate on a lint free paper towel to remove any remaining wash buffer. Add 100 μL of blue Conjugate to each well, except the Blank. Seal the plate and incubate at room temperature on a plate shaker for 30 minutes […]
Pipet 100 μL of Substrate Solution into each well. Incubate for 30 minutes at room temperature on a plate shaker at ~500 rpm. Pipet 100 μL Stop Solution to each well. Blank the plate reader against the Blank wells, read the optical density at 450 nm. Calculate the average net Optical Density (OD) bound for each standard and sample by subtracting the average Blank OD from the average OD for each standard and sample. Using linear graph paper, plot the Average Net OD for each standard versus Bax concentration in each standard. Approximate a straight line through the points.
The concentration of Bax in the unknowns can be determined by interpolation. […]

[1] = tested on: MCF-7 Breast Adenocarcinoma cell line; experiment: Wound healing assay (supplement, Table S3); format: cell-based; details: for Migration rate: Rm=Wi−Wf / t
Method: 4.3. Wound Healing Assay of MCF-7 Breast Adenocarcinoma
MCF-7 Breast Adenocarcinoma cell line was obtained from Nawah Scientific Inc., (Mokatam, Cairo, Egypt). Cells were maintained in DMEM media supplemented with […] of streptomycin, 100 units/mL of penicillin and 10% of heat-inactivated fetal bovine serum in humidified, 5% (v/v) CO2 atmosphere at 37 °C.
4.3.2. Wound healing assay
Cells were plated at a density of 2x10^5/well onto a coated 12-well plate for scratch wound assay and cultured overnight in 5% FBS-DMEM at 37 °C and 5% CO2. On the next day, horizontal scratches were introduced into the confluent monolayer; the plate was washed thoroughly with PBS, control wells were replenished with fresh medium while drug wells were treated with fresh media containing drug 26 and 27. Images were taken using an inverted microscope at the indicated time intervals. The plate was incubated at 37 °C and 5% CO2 in-between time points. The acquired […]
4.4. Wound Healing Assay Calculations
Wound width can be calculated as the average distance between the edges of the scratches; the wound width decreases as cell migration is induced. The results of compounds 26 and 27 were […]
Migration rate is calculated by dividing the time spent in migration according to the following

SMILES	Bcl-2 Conc (Bcl-2) [ng/mL]	Bcl-2 Fold reduction (Bcl-2; versus control) [fold]	Bax Conc (Bax)	Bax Fold change (Bax; compared to untreated A-549 cancer cells) [fold]	Wound Width ±SD 0 h [1] [mm]	Wound Width ±SD 24 h [1] [mm]	Wound closure % 24 h [1] [%]	Wound Width ±SD 48 h [1] [mm]	Wound closure % 48 h [1] [%]	Wound Width ±SD 72 h [1] [mm]	Wound closure % 72 h [1] [%]	Migration rate [1]
COc1ccc(CSc2nc(-c3ccc(Cl)cc3)cc(-c3ccc(OC)c(OC)c3)n2)cc1 [Compound 29, 2-(4-Methoxybenzylthio)-4-(4-chlorophenyl)-6-(3,4-dimethoxyphenyl)pyrimidine]	1.15	5	278 pg/mL and 278 ± 5 pg/mL	35	–	–	–	–	–	–	–	–
COc1ccc(-c2cc(-c3ccc(Cl)cc3)nc(SC(C)C)n2)cc1OC [Compound 26, 4-(4-Chlorophenyl)-2-(isopropylthio)-6-(3,4-dimethoxyphenyl)pyrimidine]	–	–	–	–	1.01±0.02	0.76±0.04	25	0.51±0.03	49.7	0	100	0.013
COc1ccc(CSc2nc(-c3ccc(OC)cc3)cc(-c3cccc(OC)c3)n2)cc1 [Compound 22, 2-(4-Methoxybenzylthio)-6-(3-methoxyphenyl)-4-(4-methoxyphenyl)pyrimidine]	0.90	–	294 pg/mL and 294 ± 6 pg/mL	–	–	–	–	–	–	–	–	–
C=CCSc1nc(-c2ccc(Cl)cc2)cc(-c2ccc(OC)c(OC)c2)n1 [Compound 27, 2-(Allylthio)-4-(4-chlorophenyl)-6-(3,4-dimethoxyphenyl)pyrimidine]	–	–	–	–	1±0.02	0.88±0.03	11.3	0.66±0.03	34	0.2±0.18	80	0.011
